According to patent publication US10322137B2, “Platinum compounds, compositions, and uses thereof” (PLACON THERAPEUTICS, INC., priority 2014, dated 2019):

Legend:
H460 tumors = assay: Tumor platinum levels in H460 tumor-bearing nude mice (ICP-MS); assay type: in vivo; details: dosed at 4 mg/kg, 24-hour time point
Procedure: To examine the ability of compounds disclosed herein to accumulate in tumors, a murine cancer model was used. Animals were inoculated with 5×10^5 H460 […] lung cancer cells via subcutaneous injection to the flank. Tumors were allowed to reach an approximate volume of ˜500 mm^3. Animals were then randomized into treatment groups of 3 animals per time point and were dosed at 4 mg/kg. The 24-hour time point was used as a benchmark across compounds.
Tumor platinum levels were determined by inductively coupled plasma mass spectrometry (ICP-MS). Tumors were excised from animals and dissolved in fuming nitric acid (60% w/w) by adding four parts nitric acid to 1 part tumor w/w and heating overnight at 60° C. The resulting digest was diluted 1:10 in ICP-MS analysis buffer (1% nitric acid, 2% Triton® X-100), and directly introduced into the ICP-MS unit by peristaltic pump. The end dilution factor for the samples as introduced to the ICP-MS was 50×.

[1] = system: BxPC-3 (pancreatic) xenografts, KRAS wild type; assay: BxPC-3 xenograft tumor growth inhibition; assay type: in vivo, mice; details: Table 4-2; compound 5 at 15 mg/kg iv twice weekly
Procedure: (§1) Tumor measurements were taken twice weekly, using vernier calipers.
(§2) All statistical analyses were performed using GraphPad PRISM®. Version 6.00.

[2] = in vivo
Procedure: (§3) Platinum concentrations in rat (n=3) and dog (n=3) were both measured in a course of 100 hours and 400 hours, respectively.

[3] = system: MX-1 human breast cancer xenograft (BRCA1 and BRCA2 mutant); assay: MX-1 human breast cancer xenograft study; assay type: in vivo, mice
Procedure: as §1, §2
Tumor volumes of MX-1 induced xenografts in mice were measured after multiple intravenous doses of compound 8 at 15 mg/kg at day 1, day 5, day 8 and day 12 (two times per week for two weeks) for the main study group. […] MX-1 cell line is estrogen receptor negative and Her2 normal. It is BRCA1 and BRCA2 mutant: BRCA1 truncating mutation (3363delGAAA) and BRCA2 mutations (16864A>C, Asn289His, and 22184A>G, Asn991Asp). Satellite groups (n=5) were collected on Day 9 for platinum tumor measurements. […] Only one tumor from the 10 mg/kg group began to grow back at on Day 71, with a volume of 39 mm^3 at end of study, Day 75.

[4] = system: NCI-H520 lung cancer (NSCLC) model; assay: NCI-H520 multiple dose study: tumor volume, platinum levels, IHC and TUNEL; assay type: in vivo; details: day 10, FIG. 24 and 25
Procedure: Tumor volumes and platinum levels were tracked over a course of 32 days after treatment of multiple doses of compound 8 (dosed at days 0, 3, 7 and 10) in lung cancer (NSCLC) model NCI-H520. Compound 8 was dosed at 15 mg/kg.
Cell dedifferentiation and apoptosis were studied with immunohistochemical (IHC) and TUNEL stainings.

[5] = in vivo; remark: listed apart in the source
Procedure: as §3

[6] = molecular target: albumin tryptic peptide T3 (Homo sapiens, UniProt P02768); assay: LC MS/MS analysis with albumin tryptic peptide T3; assay type: binding; details: FIG. 11B
albumin tryptic peptide T3, sequence (P02768 45-65 limits assumed): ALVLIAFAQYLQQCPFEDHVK
Description: Signals of T3 endogenous conjugates and T3-Compound 8 conjugates were observed and were evidence that Compound 8 binds to T3.

[7] = system: A2780 (ovarian) xenografts; details: compound 8 at 20 mg/kg, FIG. 20
Procedure: In these experiments, the ability of compounds to affect the growth of human Calu-6 NSCLC (non-small cell lung cancer) A2780 (ovarian), MIA Paca-2 (pancreatic) and BxPC-3 (pancreatic) xenografts was tested. […] For the MIA Paca-2, BxPC-3 in vivo studies, the tumor material was maintained by serial engraftment in female nude NCR nude mice. To initiate tumor growth, a 1 mm^3 fragment was implanted subcutaneously in the right flank of each test animal. The animals were 9 and 10-11 weeks old at the time the study started for BxPC-3 and MIA Paca-2 models, respectively. For the MX-1 in vivo studies, tumor material was maintained by serial engraftment in athymic nude mice. To initiate tumor growth a 3×3 mm pieces implanted subcutaneously in the right flank of each test animal. The animals were 5 weeks old at the time of implantation.
Tumor measurements were taken twice weekly, using vernier calipers. Tumor volume was calculated using the formula: V=0.5×width×width×length.
When tumors approached a volume of 100 mm^3, mice were randomized into three groups of ten animals. […] Mice were dosed twice weekly for the duration of the study. […] Twenty-four hours after the final dose tumor volumes were measured again for calculation of tumor growth inhibition. […] Final tumor volumes were analyzed using with a one-way analysis of variance and Tukey multiple comparison test.

Molecule: O=C1[O][Pt]2([NH][C@@H]3CCCC[C@H]3[NH]2)[O]C1=O [Oxaliplatin]
- Platinum in tumor (H460 tumors): 0.12 mM/mmole/kg platinum dosed
- TGI % [1]: 21.0%

Molecule: acetate 6-(2,5-dioxo-2H-pyrrol-1(5H)-yl) hexanoate oxaliplatin [Compound 1]
- Platinum in tumor (H460 tumors): 0.57 mM/mmole/kg platinum dosed

Molecule: CC(=O)[O][Pt]([NH2])([NH2])([Cl])([Cl])[O]C(=O)NCCCCCN1C(=O)C=CC1=O [Compound 8]
- Half-life Rat [2]: 44 h
- tumor regrowth at end of study, Day 75 ([3]; 15 mg/kg group): no tumor regrowth
- tumor volume outcome ([3]; day 12): Tumor disappeared
- platinum delivered to the tumor versus cisplatin ([3]; satellite groups, Day 9, FIG. 30): higher concentrations of platinum to the tumor than cisplatin
- apoptosis and dedifferentiation (IHC, TUNEL) [4]: significant and sustained increase in apoptosis and dedifferentiation
- Half-life Dog [5]: 174 h
- binding to albumin tryptic peptide T3 [6]: binds to T3
- tumor inhibition versus cisplatin [7]: superior efficacy in tumor inhibition compared to cisplatin

Molecule: N.N.[Cl][Pt][Cl] [Cisplatin, reference compound]
- Platinum in tumor (H460 tumors): 0.27 mM/mmole/kg platinum dosed
- TGI % at Day 12 ([3]; 3 mg/kg, day 1, 5, 8, 12): 95.1%
- tumor regrowth at end of study, Day 75 ([3]; cisplatin treated group, 3 mg/kg): no tumor regrowth
